Data on 13 compounds can be found in ChEMBL document CHEMBL6177931, “Exploring diverse frontiers: Advancements of bioactive 4-aminoquinoline-based molecular hybrids in targeted therapeutics and beyond” (Eur J Med Chem, 2024).

Converted amounts (≈) assume the structure as drawn.

In data set [1] the target is Cholinesterases; ACHE & BCHE (Homo sapiens) (UniProt P06276+P22303). Briefly: Selectivity ratio of IC50 for inhibition of recombinant human AchE to IC50 for inhibition of human BchE. In kind it is protein assay.
In data set [2] the test system is MDA-MB-231. The data set is described as follows: Anticancer activity against human MDA-MB-231 cells. In kind it is functional, cell-based.
The nature of data set [3]: Selectivity index, ratio of IC50 for cytotoxicity against African green monkey Vero cells to IC50 for antiplasmodial activity against D-sorbitol synchronized chloroquine-resistant Plasmodium falciparum W2. The data set is classed as toxicity, cell-based. To be noted: read-out: Ratio IC50.
Data set [4] has as its system Mycobacterium tuberculosis. The data set is described as follows: Antitubercular activity against Mycobacterium tuberculosis H37Rv by microplate alamar blue assay. The data set is classed as functional.
The target in data set [5] is Acetylcholinesterase (Electrophorus electricus, UniProt O42275). Briefly: Inhibition of electric eel AChE using […] as substrate measured after 2 mins by Ellman's reagent based spectrophotometric analysis.
Data set [6] addresses Cholinesterase (Equus caballus, UniProt P81908). Briefly: Inhibition of equine serum BChE using […] as substrate measured after 2 mins by Ellman's reagent based spectrophotometric analysis.
In data set [7] the test system is HeLa. The data set is described as follows: Anticancer activity against human HeLa cells incubated for 48 hrs by MTT assay. The data set is classed as functional, cell-based.
For data set [8], the system named is HepG2. The data set is described as follows: Anticancer activity against human HepG2 cells incubated for 48 hrs by MTT assay. To be noted: HepG2, 48 h. The data set is classed as functional, cell-based.
Data set [9] has as its system MCF7. The data set is described as follows: Anticancer activity against human MCF7 cells incubated for 48 hrs by MTT assay. In kind it is functional, cell-based. The following applies: MCF7, 48 h.
Data set [10] concerns HL-60. The data set is described as follows: Anticancer activity against human HL-60 cells incubated for 48 hrs by MTT assay. The data set is classed as functional, cell-based. The following applies: HL-60, 48 h.
Data set [11] deals with Curvularia lunata. Briefly: Antifungal activity against Curvularia lunata incubated for 72 hrs by mycelium growth rate method. The data set is classed as functional, organism-based.
In data set [12] the test system is Alternaria alternata. Briefly: Antifungal activity against Alternaria alternata incubated for 72 hrs by mycelium growth rate method. In kind it is functional, organism-based.
The test system of data set [13] is Pyricularia grisea. The data set is described as follows: Antifungal activity against Pyricularia grisea incubated for 72 hrs by mycelium growth rate method. The data set is classed as functional, organism-based.
Data set [14] concerns Plasmodium falciparum. Briefly: Antiplasmodial activity against chloroquine sensitive Plasmodium falciparum NF54 incubated for 48 hrs by lactate dehydrogenase assay. In kind it is functional, organism-based. To be noted: NF54, Erythrocyte.
Data set [15] has as its system A549. The data set is described as follows: Cytotoxicity against human A549 cells incubated for 24 hrs by MTT assay. In kind it is functional, cell-based. To be noted: A549, 24 h.
For data set [16], the system named is HepG2. The data set is described as follows: Antiproliferative activity against human HepG2 cells assessed as reduction in cell proliferation incubated for 24 hrs by MTT assay. In kind it is functional, cell-based. To be noted: HepG2, 24 h.
Data set [17] concerns SMMC-7721. Briefly: Antiproliferative activity against human SMMC-7721 cells assessed as reduction in cell proliferation incubated for 24 hrs by MTT assay. In kind it is functional, cell-based. The following applies: SMMC-7721, 24 h.
In data set [18] the test system is Huh-7. Briefly: Antiproliferative activity against human Huh-7 cells assessed as reduction in cell proliferation incubated for 24 hrs by MTT assay. In kind it is functional, cell-based. To be noted: Huh-7, 24 h.
The subject of data set [19] is Bacillus cereus. Briefly: Antibacterial activity against Bacillus cereus NCIM-2156 incubated for 16 to 24 hrs by broth microdilution method. The following applies: time 16-24 hrs. In kind it is functional.
For data set [20], the system named is Pseudomonas aeruginosa. The data set is described as follows: Antibacterial activity against Pseudomonas aeruginosa NCIM-2036 incubated for 16 to 24 hrs by broth microdilution method. The data set is classed as functional. The following applies: time 16-24 hrs.
In data set [21] the test system is Proteus vulgaris. The data set is described as follows: Antibacterial activity against Proteus vulgaris […] NCIM-2027 incubated for 16 to 24 hrs by broth microdilution method. In kind it is functional. The following applies: time 16-24 hrs.
The test system of data set [22] is Bacillus subtilis. Briefly: Antibacterial activity against Bacillus subtilis NCIM-2063 incubated for 16 to 24 hrs by broth microdilution method. The data set is classed as functional. To be noted: time 16-24 hrs.
Data set [23] relates to Staphylococcus aureus. The data set is described as follows: Antibacterial activity against Staphylococcus aureus NCIM-2079 incubated for 16 to 24 hrs by broth microdilution method. The data set is classed as functional. The following applies: time 16-24 hrs.
Data set [24] deals with Escherichia coli. Briefly: Antibacterial activity against Escherichia coli NCIM-2065 incubated for 16 to 24 hrs by broth microdilution method. In kind it is functional. To be noted: time 16-24 hrs.

Chain of Acetylcholinesterase (O42275 whole entry): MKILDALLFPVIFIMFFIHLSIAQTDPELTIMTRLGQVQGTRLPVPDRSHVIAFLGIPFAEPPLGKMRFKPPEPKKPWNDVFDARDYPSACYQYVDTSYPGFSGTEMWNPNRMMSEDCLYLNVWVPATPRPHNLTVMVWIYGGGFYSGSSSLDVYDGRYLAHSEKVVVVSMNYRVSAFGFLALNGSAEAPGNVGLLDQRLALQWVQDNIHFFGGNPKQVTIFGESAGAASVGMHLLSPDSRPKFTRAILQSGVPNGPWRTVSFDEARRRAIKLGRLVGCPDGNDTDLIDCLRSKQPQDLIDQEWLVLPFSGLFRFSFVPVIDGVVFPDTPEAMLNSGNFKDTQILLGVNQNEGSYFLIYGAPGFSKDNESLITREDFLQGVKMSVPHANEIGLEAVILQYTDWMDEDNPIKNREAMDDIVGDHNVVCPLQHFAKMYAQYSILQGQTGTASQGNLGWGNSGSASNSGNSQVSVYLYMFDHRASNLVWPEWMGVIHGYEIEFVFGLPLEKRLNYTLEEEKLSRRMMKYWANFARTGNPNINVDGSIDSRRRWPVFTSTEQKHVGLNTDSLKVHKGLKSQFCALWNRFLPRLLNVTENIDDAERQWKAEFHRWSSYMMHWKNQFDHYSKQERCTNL
Chain of Cholinesterase (P81908 whole entry): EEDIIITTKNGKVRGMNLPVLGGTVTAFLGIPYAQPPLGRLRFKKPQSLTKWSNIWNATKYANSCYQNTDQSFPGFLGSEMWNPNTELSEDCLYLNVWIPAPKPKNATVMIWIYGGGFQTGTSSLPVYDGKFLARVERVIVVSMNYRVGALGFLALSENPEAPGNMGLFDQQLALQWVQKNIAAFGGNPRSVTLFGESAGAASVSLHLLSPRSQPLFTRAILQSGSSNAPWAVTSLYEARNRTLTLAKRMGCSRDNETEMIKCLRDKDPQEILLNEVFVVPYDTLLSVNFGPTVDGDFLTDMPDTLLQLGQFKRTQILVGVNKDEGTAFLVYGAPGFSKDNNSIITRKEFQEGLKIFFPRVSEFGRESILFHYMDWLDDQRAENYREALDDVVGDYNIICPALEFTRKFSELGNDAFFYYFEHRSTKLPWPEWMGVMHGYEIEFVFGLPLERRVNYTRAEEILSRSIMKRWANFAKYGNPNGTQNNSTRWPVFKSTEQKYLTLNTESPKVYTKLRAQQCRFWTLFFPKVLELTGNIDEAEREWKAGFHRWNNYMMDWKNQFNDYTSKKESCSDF
Chain of Cholinesterases; ACHE & BCHE (Homo sapiens) (P06276 whole entry, looked up): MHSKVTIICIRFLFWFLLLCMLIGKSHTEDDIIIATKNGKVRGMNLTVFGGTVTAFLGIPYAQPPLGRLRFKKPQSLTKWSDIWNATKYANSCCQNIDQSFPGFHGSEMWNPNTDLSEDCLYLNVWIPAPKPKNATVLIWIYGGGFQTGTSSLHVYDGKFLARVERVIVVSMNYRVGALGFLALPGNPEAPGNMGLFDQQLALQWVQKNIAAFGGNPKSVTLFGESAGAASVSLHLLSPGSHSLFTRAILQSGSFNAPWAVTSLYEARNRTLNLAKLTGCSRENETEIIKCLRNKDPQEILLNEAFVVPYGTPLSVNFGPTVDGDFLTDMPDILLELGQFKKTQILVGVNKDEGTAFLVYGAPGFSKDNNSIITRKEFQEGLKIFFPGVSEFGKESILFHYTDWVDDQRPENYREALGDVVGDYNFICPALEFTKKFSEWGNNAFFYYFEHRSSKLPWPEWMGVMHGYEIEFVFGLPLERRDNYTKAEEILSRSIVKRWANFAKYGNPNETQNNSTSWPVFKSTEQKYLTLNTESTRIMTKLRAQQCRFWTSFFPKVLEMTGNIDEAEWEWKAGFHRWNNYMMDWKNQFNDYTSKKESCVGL
Chain of Cholinesterases; ACHE & BCHE (Homo sapiens) (P22303 whole entry, looked up): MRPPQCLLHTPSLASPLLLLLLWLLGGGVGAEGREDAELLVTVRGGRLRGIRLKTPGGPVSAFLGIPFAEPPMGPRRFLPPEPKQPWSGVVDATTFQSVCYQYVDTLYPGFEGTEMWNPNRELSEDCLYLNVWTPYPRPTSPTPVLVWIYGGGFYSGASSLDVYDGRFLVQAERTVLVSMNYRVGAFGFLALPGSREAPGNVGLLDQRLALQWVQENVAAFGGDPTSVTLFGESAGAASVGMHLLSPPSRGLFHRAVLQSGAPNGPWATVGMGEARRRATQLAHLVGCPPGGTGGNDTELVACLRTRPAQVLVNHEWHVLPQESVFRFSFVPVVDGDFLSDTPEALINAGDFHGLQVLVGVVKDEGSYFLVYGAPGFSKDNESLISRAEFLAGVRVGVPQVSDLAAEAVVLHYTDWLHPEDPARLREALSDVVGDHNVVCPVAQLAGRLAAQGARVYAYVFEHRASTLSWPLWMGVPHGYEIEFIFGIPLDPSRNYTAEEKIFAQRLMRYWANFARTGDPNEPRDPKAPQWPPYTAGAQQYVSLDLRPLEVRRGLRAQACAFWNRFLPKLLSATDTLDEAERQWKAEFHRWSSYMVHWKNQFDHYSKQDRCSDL

For the compound `CC(CCNCCC12CC3CC(CC(C3)C1)C2)Nc1ccnc2cc(Cl)ccc12` (configuration not stated), the Ratio IC50 in data set [1] worked out at 10.
As for `C[C@H]1[C@H](C)CC[C@]2(C(=O)OCCOCCNc3ccnc4cc(Cl)ccc34)CC[C@]3(C)C(=CC[C@@H]4[C@@]5(C)CC[C@H](O)C(C)(C)[C@@H]5CC[C@]43C)[C@H]12`, the concentration for half-maximal inhibition (IC50) in data set [2] worked out at 85.6 µg/mL (≈ 121 µM).
Turning to `O=C1c2ccc(N3CCN(CCO)CC3)cc2C(=O)N1CCCNc1ccnc2cc(Cl)ccc12`, the selectivity ratio in data set [3] is more than 4200.
`NC(=O)N/N=C(/C=C/c1ccc(Br)cc1)c1ccc(Nc2ccnc3cc(Cl)ccc23)cc1` gave a minimal inhibitory concentration (MIC) in data set [4] of 1.56 µM (≈ 0.812 µg/mL).
`CCN(CC)c1ccc2c(c1)C(=O)N(CCC(=O)NCCNc1ccnc3cc(Cl)ccc13)C2=O`: the selectivity ratio in data set [3] is more than 2000.
Regarding `COc1cc(/C=C/C(=O)NCCCNc2cc(C)nc3ccccc23)ccc1OCc1ccccc1`, the IC50 in data set [5] amounted to 2.47 µM; in [6], 0.1 µM.
For the compound `S=C(NNc1ccnc2cc(Cl)ccc12)Nc1nc(Nc2ccc(Cl)cc2)nc(Nc2ccc(Cl)cc2)n1`, the concentration for half-maximal inhibition (IC50) in data set [7] is 32.4 µM; in data set [8], 45.3 µM; in [9], 32.3 µM; in data set [10], 26.3 µM.
As for `COc1cc(/C=C/C(=O)NCCNc2cc(C)nc3ccccc23)ccc1OCc1ccc(Br)cc1`, the IC50 in data set [5] is 0.62 µM; in data set [6], 1.18 µM.
Take `Cl.Clc1ccc(Nc2cc(-c3ccccc3)nc3ccccc23)cc1`: the EC50 in data set [11] is 13.3 µg/mL; in data set [12] it was 15.6 µg/mL; in data set [13], 14.4 µg/mL.
Take `O=C(/C=C/c1ccccc1Br)c1ccc(S(=O)(=O)NCCCNc2ccnc3cc(Cl)ccc23)cc1`: in [14], the IC50 was 0.1 µM.
As for `Cc1cccc2c(Nc3cccc4ncccc34)cc(Cl)nc12`, the half-inhibitory concentration (IC50) in [15] amounted to 29.4 µM.
With `O=C(N/N=C/c1cc(O)ccc1O)c1ccc(Nc2ccnc3ccccc23)cc1`, the values for the half-maximal inhibitory concentration (IC50) in [16], in data set [17] and in [18] were 23.7 µM, more than 50 µM and 18.6 µM, respectively.
Turning to `O=[N+]([O-])c1ccc(Nc2nc(NC(=S)NNc3ccnc4cc(Cl)ccc34)nc(Nc3ccc([N+](=O)[O-])cc3)n2)cc1`, the MIC in data set [19] amounted to 12.5 µM (≈ 7.55 µg/mL); in data set [20] it was 3.12 µM (≈ 1.88 µg/mL); in [21], 3.12 µM (≈ 1.88 µg/mL); in data set [22] it was 25 µM (≈ 15.1 µg/mL); in [23], 3.12 µM (≈ 1.88 µg/mL); in data set [24], 12.5 µM (≈ 7.55 µg/mL).
